ChEMBL document CHEMBL2010689 (J Med Chem, 2012)
Activity calls are given as the source filed them. The calls are words filed in the database; no cut-off is given here.

What was measured:
[1] = tested on: HUVEC; assay: Antiangiogenic activity in HUVEC assessed as inhibition of VEGF-induced migration; assay type: functional, cell-based; conditions: Homo sapiens
[2] = tested on: P388; assay: Antitumor activity against mouse P388 cells xenografted in DBA/2 mouse assessed as mean survival at 30 mg/kg, po qd (reference value: 14 days); assay type: functional
[3] = Terminal half life in Sprague-Dawley rat at 0.8 mg/kg, iv; assay type: ADME, organism-based; set-up: dose 0.8 mg/kg, route intravenous; conditions: in vivo, read-out: beta t1/2 (converted)
[4] = Cmax in Sprague-Dawley rat at 5 mg/kg, po; assay type: ADME, organism-based; set-up: dose 5 mg/kg, route oral; conditions: in vivo
[5] = Half life in cynomolgus monkey at 3 mg/kg, po; assay type: ADME, organism-based, Macaca fascicularis; set-up: dose 3 mg/kg, route oral; conditions: in vivo
[6] = Antitumor activity against human U251MG cells xenografted in athymic nude mouse assessed as tumor growth inhibition at 30 mg/kg, po bid measured on day 29 relative to control; assay type: functional; conditions: U-251, 696 h, read-out: GI
[7] = molecular target: Cytochrome P450 2C19 (Homo sapiens, UniProt P33261); assay: Inhibition of CYP2C19; assay type: ADME
Cytochrome P450 2C19, sequence (P33261 whole entry): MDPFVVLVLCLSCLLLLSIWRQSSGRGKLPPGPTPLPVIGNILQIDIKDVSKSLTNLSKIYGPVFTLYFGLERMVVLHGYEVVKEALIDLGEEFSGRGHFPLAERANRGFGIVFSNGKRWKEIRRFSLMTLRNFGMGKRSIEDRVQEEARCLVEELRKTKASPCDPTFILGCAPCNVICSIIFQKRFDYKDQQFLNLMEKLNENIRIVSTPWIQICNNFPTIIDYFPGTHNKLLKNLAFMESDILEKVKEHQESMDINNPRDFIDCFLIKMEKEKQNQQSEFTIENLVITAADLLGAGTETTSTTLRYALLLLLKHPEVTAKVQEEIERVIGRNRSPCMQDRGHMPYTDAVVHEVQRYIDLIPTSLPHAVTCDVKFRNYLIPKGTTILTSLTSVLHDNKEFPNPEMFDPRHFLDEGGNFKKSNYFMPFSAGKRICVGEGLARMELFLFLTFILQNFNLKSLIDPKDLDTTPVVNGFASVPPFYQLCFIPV

[8] = Antitumor activity against human U251MG cells xenografted in athymic nude mouse assessed as complete tumor regression at 3 mg/kg, po bid; assay type: functional, U-251
[9] = Inhibition of Mek at 1 uM
[10] = tested on: HUVEC; assay: Antiangiogenic activity in HUVEC assessed as inhibition of capillary-tube formation by matrigel assay; assay type: functional, cell-based; conditions: Homo sapiens
[11] = Cmax in athymic nude mouse plasma xenografted with human A375 cells at 10 mg/kg, po
[12] = tested on: P388; assay: Antitumor activity against mouse P388 cells xenografted in DBA/2 mouse assessed as mean survival at 30 mg/kg, po bid for 7 days followed by readministeration after 7 days; assay type: functional
[13] = tested on: P388; assay: Antitumor activity against mouse P388 cells xenografted in DBA/2 mouse assessed as mean survival at 30 mg/kg, po qd for 7 days followed by readministeration after 7 days; assay type: functional
[14] = Antitumor activity against human U251MG cells xenografted in athymic nude mouse assessed as tumor growth inhibition at 10 mg/kg, po bid measured on day 29 relative to control; assay type: functional; conditions: U-251, 696 h, read-out: GI
[15] = Antiangiogenic activity in BAEC assessed as inhibition of FGF-induced proliferation; assay type: functional; conditions: Bos taurus
[16] = Clearance in Sprague-Dawley rat at 0.8 mg/kg, iv; assay type: ADME, organism-based; set-up: dose 0.8 mg/kg, route intravenous; conditions: in vivo
[17] = Metabolic stability in mouse liver S9 fraction assessed as compound remaining after 2 hrs; assay type: ADME, subcellular; conditions: read-out: Stability
[18] = tested on: Aorta; assay: Cytotoxicity against rat aortic rings; assay type: tissue-based
[19] = Inhibition of PKC at 1 uM
[20] = molecular target: Tyrosine-protein kinase JAK2 (Homo sapiens) (UniProt O60674); assay: Inhibition of JAK2 at 1 uM
[21] = tested on: HUVEC; assay: Antiangiogenic activity in HUVEC assessed as inhibition of VEGF-induced survival; assay type: functional, cell-based; conditions: Homo sapiens
[22] = Antiangiogenic activity in BAEC assessed as inhibition of VEGF-induced survival; assay type: functional, Bos taurus
[23] = molecular target: Serine/threonine-protein kinase Chk2 (Homo sapiens, UniProt O96017); assay: Inhibition of human CHK2 using ATP as substrate
[24] = molecular target: Macrophage colony-stimulating factor 1 receptor (Homo sapiens, UniProt P07333); assay: Inhibition of human FMS using ATP as substrate
[25] = Metabolic stability in monkey liver S9 fraction assessed as compound remaining after 2 hrs; assay type: ADME, subcellular, Macaca mulatta; conditions: rhesus monkey, read-out: Stability
[26] = Antiangiogenic activity in HMVEC assessed as inhibition of VEGF-induced proliferation; assay type: functional; conditions: Homo sapiens
[27] = Cmax in cynomolgus monkey at 3 mg/kg, po; assay type: ADME, organism-based, Macaca fascicularis; set-up: dose 3 mg/kg, route oral; conditions: in vivo
[28] = molecular target: Aurora kinase A (Homo sapiens, UniProt O14965); assay: Inhibition of human Aurora-A using ATP as substrate
Aurora kinase A, sequence (O14965 whole entry): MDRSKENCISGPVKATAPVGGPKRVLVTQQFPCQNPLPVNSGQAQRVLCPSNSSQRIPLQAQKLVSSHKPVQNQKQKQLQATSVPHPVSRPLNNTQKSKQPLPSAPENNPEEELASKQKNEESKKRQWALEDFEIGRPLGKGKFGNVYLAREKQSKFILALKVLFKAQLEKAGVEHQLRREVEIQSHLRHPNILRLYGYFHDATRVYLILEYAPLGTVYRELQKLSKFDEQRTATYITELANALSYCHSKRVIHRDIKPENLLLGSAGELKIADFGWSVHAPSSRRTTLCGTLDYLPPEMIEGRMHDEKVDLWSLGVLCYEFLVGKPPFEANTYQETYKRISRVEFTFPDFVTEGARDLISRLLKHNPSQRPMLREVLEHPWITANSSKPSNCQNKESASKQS

[29] = Antitumor activity against human U251MG cells xenografted in po dosed athymic nude mouse assessed as tumor growth inhibition bid measured on day 29 relative to control; assay type: functional; conditions: U-251, po, 696 h, read-out: MED
[30] = molecular target: Vascular endothelial growth factor receptor 1 (Homo sapiens, UniProt P17948); assay: Inhibition of human VEGFR1 using ATP as substrate
[31] = tested on: A-375; assay: Antitumor activity against human A375 cells xenografted in po dosed athymic nude mouse assessed as tumor growth inhibition bid measured on day 29 relative to control; assay type: functional; conditions: A-375, po, 696 h, read-out: MED
[32] = Antiangiogenic activity in BAEC assessed as inhibition of FGF-induced migration; assay type: functional; conditions: Bos taurus
[33] = molecular target: Type-1 angiotensin II receptor (Homo sapiens) (UniProt P30556); assay: Inhibition of angiotensin AT1 at 10 uM
Type-1 angiotensin II receptor (Homo sapiens), sequence (P30556 whole entry): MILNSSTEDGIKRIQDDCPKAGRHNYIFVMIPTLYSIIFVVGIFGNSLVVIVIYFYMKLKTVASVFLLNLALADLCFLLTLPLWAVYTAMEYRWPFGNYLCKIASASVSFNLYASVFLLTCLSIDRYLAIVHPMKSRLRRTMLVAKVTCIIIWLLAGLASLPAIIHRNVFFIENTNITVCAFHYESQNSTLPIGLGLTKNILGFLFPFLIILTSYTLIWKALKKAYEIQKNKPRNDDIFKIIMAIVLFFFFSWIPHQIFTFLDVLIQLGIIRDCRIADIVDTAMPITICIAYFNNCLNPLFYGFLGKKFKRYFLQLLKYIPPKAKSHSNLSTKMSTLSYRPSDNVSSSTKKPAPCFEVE

[34] = Antiangiogenic activity in HMVEC assessed as inhibition of FGF-induced migration; assay type: functional; conditions: Homo sapiens
[35] = molecular target: Receptor-type tyrosine-protein kinase FLT3 (Homo sapiens, UniProt P36888); assay: Inhibition of human FLT3 using ATP as substrate
Receptor-type tyrosine-protein kinase FLT3, sequence (P36888 whole entry): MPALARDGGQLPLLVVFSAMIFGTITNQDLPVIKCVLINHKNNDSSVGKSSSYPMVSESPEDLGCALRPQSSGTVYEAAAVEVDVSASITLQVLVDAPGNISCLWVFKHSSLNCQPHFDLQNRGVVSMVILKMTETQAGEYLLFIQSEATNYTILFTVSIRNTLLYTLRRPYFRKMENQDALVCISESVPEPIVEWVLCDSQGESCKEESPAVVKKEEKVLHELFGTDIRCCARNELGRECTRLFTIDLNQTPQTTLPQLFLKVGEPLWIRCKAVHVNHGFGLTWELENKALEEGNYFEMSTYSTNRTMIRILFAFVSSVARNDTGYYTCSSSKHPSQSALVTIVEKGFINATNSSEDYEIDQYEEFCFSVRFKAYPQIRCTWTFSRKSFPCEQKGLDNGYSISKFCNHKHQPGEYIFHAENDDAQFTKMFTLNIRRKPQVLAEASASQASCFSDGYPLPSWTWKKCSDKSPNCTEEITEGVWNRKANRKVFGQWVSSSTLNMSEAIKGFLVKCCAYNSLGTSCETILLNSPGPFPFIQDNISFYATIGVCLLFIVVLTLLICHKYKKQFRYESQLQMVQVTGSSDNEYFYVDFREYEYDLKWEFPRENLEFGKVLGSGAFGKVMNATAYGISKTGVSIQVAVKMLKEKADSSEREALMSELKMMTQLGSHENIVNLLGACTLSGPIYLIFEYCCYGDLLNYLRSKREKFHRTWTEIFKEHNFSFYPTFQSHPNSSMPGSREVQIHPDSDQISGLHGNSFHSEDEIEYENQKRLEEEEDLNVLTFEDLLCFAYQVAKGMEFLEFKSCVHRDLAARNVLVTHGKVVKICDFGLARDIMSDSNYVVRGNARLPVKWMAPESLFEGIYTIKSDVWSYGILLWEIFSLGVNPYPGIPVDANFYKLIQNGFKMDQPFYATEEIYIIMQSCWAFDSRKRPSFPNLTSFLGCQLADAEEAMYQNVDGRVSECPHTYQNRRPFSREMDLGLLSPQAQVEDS

[36] = tested on: Mus musculus; assay: Toxicity in athymic nude mouse bearing human U251MG cells assessed as morbidity at 1 to 30 mg/kg, po; assay type: organism-based, U-251; set-up: dose 1-30 mg/kg, route oral; conditions: in vivo
[37] = tested on: A-375; assay: Antitumor activity against human A375 cells xenografted in athymic nude mouse assessed as partial tumor regression at 10 mg/kg, po bid; assay type: functional
[38] = Antitumor activity against human U251MG cells xenografted in athymic nude mouse assessed as partial tumor regression at 1 mg/kg, po bid; assay type: functional, U-251
[39] = molecular target: Cytochrome P450 3A4 (Homo sapiens, UniProt P08684); assay: Induction of CYP3A4; assay type: ADME
Cytochrome P450 3A4, sequence (P08684 whole entry): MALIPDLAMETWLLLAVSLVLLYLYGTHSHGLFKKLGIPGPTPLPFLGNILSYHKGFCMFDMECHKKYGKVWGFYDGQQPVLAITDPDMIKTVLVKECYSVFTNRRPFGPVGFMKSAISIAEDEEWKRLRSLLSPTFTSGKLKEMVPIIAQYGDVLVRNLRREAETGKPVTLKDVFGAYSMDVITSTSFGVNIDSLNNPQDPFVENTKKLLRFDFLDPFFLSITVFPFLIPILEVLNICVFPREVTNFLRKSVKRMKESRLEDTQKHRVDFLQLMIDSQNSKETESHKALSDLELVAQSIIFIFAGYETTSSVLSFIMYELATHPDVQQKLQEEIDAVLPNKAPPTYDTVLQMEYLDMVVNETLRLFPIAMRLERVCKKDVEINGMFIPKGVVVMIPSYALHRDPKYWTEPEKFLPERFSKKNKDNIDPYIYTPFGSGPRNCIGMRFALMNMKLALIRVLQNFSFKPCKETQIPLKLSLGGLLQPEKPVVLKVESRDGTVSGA

[40] = molecular target: Proto-oncogene tyrosine-protein kinase Src (Homo sapiens, UniProt P12931); assay: Inhibition of human cSrc using ATP as substrate
Proto-oncogene tyrosine-protein kinase Src, sequence (P12931 2-536 limits assumed): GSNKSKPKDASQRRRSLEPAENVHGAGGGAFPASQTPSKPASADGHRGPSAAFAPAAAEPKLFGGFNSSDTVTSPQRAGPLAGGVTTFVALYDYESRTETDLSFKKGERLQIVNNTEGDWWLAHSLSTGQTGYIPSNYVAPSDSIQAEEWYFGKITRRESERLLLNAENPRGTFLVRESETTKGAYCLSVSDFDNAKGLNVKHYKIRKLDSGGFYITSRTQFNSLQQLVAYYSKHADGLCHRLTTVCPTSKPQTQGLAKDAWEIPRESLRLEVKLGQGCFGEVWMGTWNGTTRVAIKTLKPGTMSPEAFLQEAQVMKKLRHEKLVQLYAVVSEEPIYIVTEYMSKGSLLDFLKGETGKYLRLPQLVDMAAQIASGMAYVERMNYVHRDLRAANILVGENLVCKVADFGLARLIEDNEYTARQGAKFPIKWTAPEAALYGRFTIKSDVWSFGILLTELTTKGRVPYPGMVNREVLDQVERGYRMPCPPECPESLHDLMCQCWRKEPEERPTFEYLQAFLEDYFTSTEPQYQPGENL

[41] = tested on: HUVEC; assay: Cytotoxicity against angiopoietin 1-stimulated HUVEC at > = 50 nM; assay type: cell-based; conditions: human
[42] = Antitumor activity against human U251MG cells xenografted in athymic nude mouse assessed as tumor growth inhibition at 3 mg/kg, po bid measured on day 29 relative to control; assay type: functional; conditions: U-251, 696 h, read-out: GI
[43] = Inhibition of IRK at 1 uM
[44] = molecular target: Adenosine receptor A3 (Homo sapiens) (UniProt P0DMS8); assay: Inhibition of adenosine A3 receptor at 10 uM
Adenosine receptor A3 (Homo sapiens), sequence (P0DMS8 whole entry): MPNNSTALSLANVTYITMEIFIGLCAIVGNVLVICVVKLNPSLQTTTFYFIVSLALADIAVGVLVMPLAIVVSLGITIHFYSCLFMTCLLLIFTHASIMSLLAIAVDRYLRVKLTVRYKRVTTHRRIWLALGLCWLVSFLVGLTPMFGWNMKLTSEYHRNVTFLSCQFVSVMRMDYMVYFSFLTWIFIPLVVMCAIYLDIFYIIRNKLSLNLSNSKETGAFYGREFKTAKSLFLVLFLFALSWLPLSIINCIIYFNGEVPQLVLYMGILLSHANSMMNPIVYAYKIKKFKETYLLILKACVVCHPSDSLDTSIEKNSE

[45] = tested on: A-375; assay: Antitumor activity against human A375 cells xenografted in athymic nude mouse assessed as partial tumor regression at 3 mg/kg, po bid; assay type: functional
[46] = AUC in Sprague-Dawley rat at 5 mg/kg, po; assay type: ADME, organism-based; set-up: dose 5 mg/kg, route oral; conditions: plasma
[47] = Cmax in athymic nude mouse plasma xenografted with human U251MG cells at 30 mg/kg, po; assay type: ADME, organism-based, U-251; set-up: dose 30 mg/kg, route oral
[48] = molecular target: Vascular endothelial growth factor receptor 2 (Homo sapiens, UniProt P35968)
Vascular endothelial growth factor receptor 2, sequence (P35968 whole entry): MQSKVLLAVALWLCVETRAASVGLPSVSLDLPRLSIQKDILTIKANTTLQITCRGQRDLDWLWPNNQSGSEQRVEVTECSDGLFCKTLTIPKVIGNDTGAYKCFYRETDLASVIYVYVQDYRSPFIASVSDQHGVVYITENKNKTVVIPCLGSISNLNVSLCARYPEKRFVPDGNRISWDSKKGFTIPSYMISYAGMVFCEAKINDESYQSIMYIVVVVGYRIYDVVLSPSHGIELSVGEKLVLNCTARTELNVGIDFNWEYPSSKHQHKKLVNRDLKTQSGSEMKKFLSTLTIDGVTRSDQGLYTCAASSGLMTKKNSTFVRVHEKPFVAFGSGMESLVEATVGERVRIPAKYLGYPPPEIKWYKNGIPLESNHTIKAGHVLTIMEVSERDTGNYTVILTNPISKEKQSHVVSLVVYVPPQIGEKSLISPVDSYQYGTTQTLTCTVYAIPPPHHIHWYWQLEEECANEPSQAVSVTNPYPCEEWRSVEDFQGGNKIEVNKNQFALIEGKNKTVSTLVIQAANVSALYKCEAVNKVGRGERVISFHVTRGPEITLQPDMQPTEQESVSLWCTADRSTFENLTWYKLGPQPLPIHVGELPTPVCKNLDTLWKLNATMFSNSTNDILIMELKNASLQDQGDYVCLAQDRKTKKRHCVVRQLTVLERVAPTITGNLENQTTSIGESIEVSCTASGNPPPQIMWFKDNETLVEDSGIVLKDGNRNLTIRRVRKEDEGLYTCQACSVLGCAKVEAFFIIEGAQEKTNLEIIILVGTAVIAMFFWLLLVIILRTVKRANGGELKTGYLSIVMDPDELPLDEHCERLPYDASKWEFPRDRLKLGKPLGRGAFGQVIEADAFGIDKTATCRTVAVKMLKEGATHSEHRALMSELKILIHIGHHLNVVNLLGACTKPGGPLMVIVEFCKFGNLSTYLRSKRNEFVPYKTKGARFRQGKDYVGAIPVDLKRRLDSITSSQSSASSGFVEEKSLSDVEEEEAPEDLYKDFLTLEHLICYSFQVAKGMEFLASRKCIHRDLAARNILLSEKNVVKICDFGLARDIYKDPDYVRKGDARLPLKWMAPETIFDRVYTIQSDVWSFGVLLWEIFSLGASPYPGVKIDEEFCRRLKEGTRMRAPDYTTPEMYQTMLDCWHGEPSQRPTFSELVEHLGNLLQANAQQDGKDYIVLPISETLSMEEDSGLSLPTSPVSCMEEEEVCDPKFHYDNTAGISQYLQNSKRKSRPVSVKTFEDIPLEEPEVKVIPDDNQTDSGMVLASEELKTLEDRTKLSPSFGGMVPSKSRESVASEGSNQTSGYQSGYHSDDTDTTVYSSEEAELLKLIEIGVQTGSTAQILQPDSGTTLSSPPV
Description: Inhibition of human VEGFR2 expressed in porcine PAE145 cells cotransfected with chimeric rat TRK-A/KDR receptor after 1 hr by immunofluorescence assay

[49] = Metabolic stability in human liver S9 fraction assessed as compound remaining after 2 hrs; assay type: ADME, subcellular; conditions: read-out: Stability
[50] = molecular target: Muscarinic acetylcholine receptor M4 (Homo sapiens, UniProt P08173); assay: Inhibition of muscarinic M4 receptor
[51] = tested on: Aorta; assay: Antiangiogenic activity in rat aortic rings assessed as inhibition of peak phase microvessel growth; assay type: functional, tissue-based
[52] = Cmax in athymic nude mouse tumor xenografted with human A375 cells at 10 mg/kg, po

`CC(C)Cn1c2ccc(Nc3ncccn3)cc2c2c3c(c4c(c21)CCc1nn(C)cc1-4)C(=O)NC3` [CEP-11981] showed an EC50 [1] of 8 nM, an MSD [2] of 23 days and a half-life [3] of 114 min. It also gave a Cmax [4] of 1330 ng/mL, a half-life [5] of 144 min and an inhibition in vivo at 30 mg/kg [6] of 88%. For the same compound, the IC50 [7] was 9 µM, the Activity [8] was 0% and the inhibition [9] was “Active”. It also gave an EC50 [10] of 2 nM, a Cmax [11] of 456 ng/mL and an MSD [12] of 25 days. The MSD [13] was 18.5 days, the inhibition in vivo at 10 mg/kg [14] was 75% and the EC50 [15] was 8 nM. For the same compound, the clearance [16] was 4.3 mL/min/kg, the remaining at 2 h [17] was 65% and the Activity [18] was “Non-toxic”. For the same compound, the inhibition [19] was “Active”, the inhibition [20] was “Active” and the EC50 [21] was 8 nM. It also gave an EC50 [22] of 8 nM, an IC50 [23] of 140 nM and an IC50 [24] of 78 nM. It also gave a remaining at 2 h [25] of 54%, an EC50 [26] of 8 nM and a Cmax [27] of 491 ng/mL. The IC50 [28] was 42 nM, the minimal effective dose [29] was 3 mg/kg and the IC50 [30] was 3 nM. The minimal effective dose [31] was 0.3 mg/kg, the EC50 [32] was 8 nM and the inhibition [33] was greater than 80%. The EC50 [34] was 8 nM, the IC50 [35] was 71 nM and the Activity [36] was “Non-toxic”. The Activity [37] was 50%, the Activity [38] was 0% and the Activity [39] was “Not Active”. The IC50 [40] was 37 nM, the Activity [41] was “Non-toxic” and the inhibition in vivo at 3 mg/kg [42] was 61%. The inhibition [43] was “Active”, the inhibition [44] was greater than 80% and the Activity [45] was 11%. The AUC [46] was 8560 ng·h/mL, the Cmax [47] was 1200 ng/mL and the IC50 [48] was less than 10 nM. The remaining at 2 h [49] was 79%, the Ki [50] was 2900 nM and the Activity [51] was “Dose-dependent effect”. It also gave an EC50 [51] of 4 nM and a Cmax [52] of 140 ng/g.
